The experiment has as its target T1, human FFAR1 (GPR40) (Homo sapiens, UniProt O14842).
T1 construct: Flag; expressed in transfected cells; host or cells: HEK293T
Nature of the experiment: NFAT-RE-based reporter gene activity assay (Dual-Glo luciferase) for GPR40 agonistic activity in co-transfected HEK293T cells. In kind it is cell-based. The settings on record: 4-hour treatment; for Efficacy (%): class symbols. Summed up:
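Agonism read as NFAT-RE-driven firefly luciferase over Renilla control (Dual-Glo) after 4 h compound exposure, top concentration 1 µM, 10 half-log steps.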
On the technique in general: A reporter such as luciferase makes a cellular process visible.

Each structure is given as a SMILES string.

T1 sequence (O14842 whole entry): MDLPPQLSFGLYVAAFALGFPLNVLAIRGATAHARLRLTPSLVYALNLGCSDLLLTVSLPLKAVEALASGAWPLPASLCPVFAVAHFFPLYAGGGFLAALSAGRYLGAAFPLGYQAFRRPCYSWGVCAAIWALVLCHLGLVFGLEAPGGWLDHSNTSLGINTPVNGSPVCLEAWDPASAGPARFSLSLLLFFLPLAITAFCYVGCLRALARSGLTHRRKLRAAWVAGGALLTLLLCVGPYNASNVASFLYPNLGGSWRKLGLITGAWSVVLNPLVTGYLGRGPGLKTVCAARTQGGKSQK

On to `COc1ccc(F)c(N2CCC(c3oc4cc([C@@H](CC(=O)O)C5CC5)ccc4c3-c3ccc(C(C)(C)O)cc3)CC2)c1` [Compound 177], for which the half-maximal effective concentration (EC50) (as a rule, the midpoint of the concentration-response curve) lay within 100 to 500 nM and the “Efficacy (%)” value is “†† (150 ≥ Efficacy (%) > 100)”.
On the same counts, the results for `COc1ccc(F)c(N2CCC(c3oc4cc(C(CC(=O)O)C5CC5)ccc4c3-c3cccc(F)c3)CC2)c1` (stereo not drawn) [Compound 178] are 100 to 500 nM and “†† (150 ≥ Efficacy (%) > 100)”.
For `COc1ccc(-c2c(C3CCN(c4cc(OC)ccc4F)CC3)oc3cc([C@@H](CC(=O)O)C4CC4)ccc23)cc1` [Compound 179], in that order: 100 to 500 nM and “††† (Efficacy (%) > 150)”.
On the same counts, the results for `COc1ccc(F)c(N2CCC(c3oc4cc(C(CC(=O)O)C5CC5)ccc4c3-c3ccc(SC)cc3)CC2)c1` (stereo not drawn) [Compound 181] are 100 to 500 nM and “†† (150 ≥ Efficacy (%) > 100)”.
As for `COc1ccc(F)c(N2CCC(c3oc4cc(C(CC(=O)O)C5CC5)ccc4c3-c3ccc(S(=O)(=O)C(C)C)cc3)CC2)c1` (stereo not drawn) [Compound 183], the 50% effective concentration (EC50) is 100 to 500 nM and the “Efficacy (%)” value was “†† (150 ≥ Efficacy (%) > 100)”.
For `COc1ccc(F)c(N2CCC(c3oc4cc(C(CC(=O)O)C5CC5)ccc4c3-c3ccc(NC(C)C)cc3)CC2)c1` (stereo not drawn) [Compound 184], in that order: 100 to 500 nM and “† (100 ≥ Efficacy (%) > 50)”.
For `COc1ccc(F)c(N2CCC(c3oc4cc(C(CC(=O)O)C5CC5)ccc4c3-c3ccc(N(C)C(C)C)cc3)CC2)c1` (stereo not drawn) [Compound 185], in that order: 100 to 500 nM and “†† (150 ≥ Efficacy (%) > 100)”.
On the same counts, the results for `COc1ccc(F)c(N2CCC(c3oc4cc(C(CC(=O)O)C5CC5)ccc4c3-c3ccc(N(C(C)=O)C(C)C)cc3)CC2)c1` (stereo not drawn) [Compound 186] are 100 to 500 nM and “† (100 ≥ Efficacy (%) > 50)”.
With `COc1ccc(F)c(N2CCC(c3oc4cc(C(CC(=O)O)C5CC5)ccc4c3-c3cccc(NC(C)C)c3)CC2)c1` (stereo not drawn) [Compound 187], the EC50 lay within 100 to 500 nM and the “Efficacy (%)” value is recorded as “†† (150 ≥ Efficacy (%) > 100)”.
On the same counts, the results for `COc1ccc(F)c(N2CCC(c3oc4cc(C(CC(=O)O)C5CC5)ccc4c3-c3cccc(NCC(C)(C)C)c3)CC2)c1` (stereo not drawn) [Compound 188] are 100 to 500 nM and “†† (150 ≥ Efficacy (%) > 100)”.
For `COc1ccc(F)c(N2CCC(c3oc4cc(C(CC(=O)O)C5CC5)ccc4c3-c3cccc(N(CC(C)(C)C)C(C)=O)c3)CC2)c1` (stereo not drawn) [Compound 190], the concentration for a half-maximal effect (EC50) lay in the range of 100 to 500 nM and the “Efficacy (%)” value is “†† (150 ≥ Efficacy (%) > 100)”.
For `COc1ccc(F)c(N2CCC(c3oc4cc(C(CC(=O)O)C5CC5)ccc4c3-c3cccc(N(C(C)=O)C(C)C)c3)CC2)c1` (stereo not drawn) [Compound 191], in that order: 100 to 500 nM and “†† (150 ≥ Efficacy (%) > 100)”.
For `COc1ccc(F)c(N2CCC(c3oc4cc(C(CC(=O)O)C5CC5)ccc4c3-c3cccc(N4CCCC4(C)C)c3)CC2)c1` (stereo not drawn) [Compound 192], in that order: 100 to 500 nM and “†† (150 ≥ Efficacy (%) > 100)”.
Regarding `COc1ccc(F)c(N2CCC(c3oc4cc(C(CC(=O)O)C5CC5)ccc4c3-c3cccc(-n4cccn4)c3)CC2)c1` (stereo not drawn) [Compound 193], the EC50 lay in the range of 100 to 500 nM and the “Efficacy (%)” value is recorded as “†† (150 ≥ Efficacy (%) > 100)”.
Take `COc1ccc(F)c(N2CCC(c3oc4cc([C@@H](CC(=O)O)C5CC5)ccc4c3-c3ccc(C(=O)NCC(C)(C)C)cc3)CC2)c1` [Compound 198]: the EC50 was 100 to 500 nM and the “Efficacy (%)” value is reported as “†† (150 ≥ Efficacy (%) > 100)”.
Take `COc1ccc(F)c(N2CCC(c3oc4cc(C(CC(=O)O)C5CC5)ccc4c3-c3ccc(C(=O)N4CCCC4)cc3)CC2)c1` (stereo not drawn) [Compound 200]: the half-maximal effective concentration (EC50) was 100 to 500 nM and the “Efficacy (%)” value is “†† (150 ≥ Efficacy (%) > 100)”.
For `COc1ccc(F)c(N2CCC(c3oc4cc(C(CC(=O)O)C5CC5)ccc4c3-c3ccc(C(=O)N(C)CC(C)(C)C)cc3)CC2)c1` (stereo not drawn) [Compound 202], in that order: 100 to 500 nM and “†† (150 ≥ Efficacy (%) > 100)”.
On the same counts, the results for `COc1ccc(Cl)c(N2CCC(c3oc4cc(C(CC(=O)O)C5CC5)ccc4c3-c3cccc(C(C)(C)C)c3)CC2)c1` (stereo not drawn) [Compound 203] are 100 to 500 nM and “† (100 ≥ Efficacy (%) > 50)”.
On the same counts, the results for `COc1cc(OC)cc(N2CCC(c3oc4cc(C(CC(=O)O)C5CC5)ccc4c3-c3ccc(C(C)(C)C)cc3)CC2)c1` (stereo not drawn) [Compound 205] are 100 to 500 nM and “† (100 ≥ Efficacy (%) > 50)”.
Consider `COc1cc(N2CCC(c3oc4cc(C(CC(=O)O)C5CC5)ccc4c3-c3ccc(C(C)(C)C)cc3)CC2)ccc1F` (stereo not drawn) [Compound 206], for which the EC50 lay in the range of 100 to 500 nM and the “Efficacy (%)” value is listed as “†† (150 ≥ Efficacy (%) > 100)”.
For `CC(C)(C)c1ccc(-c2c(C3CCN(c4ccc5c(c4)OCC5)CC3)oc3cc(C(CC(=O)O)C4CC4)ccc23)cc1` (stereo not drawn) [Compound 208], in that order: 100 to 500 nM and “††† (Efficacy (%) > 150)”.
For `CC(C)(C)c1ccc(-c2c(C3CCN(c4ccc5ccoc5c4)CC3)oc3cc(C(CC(=O)O)C4CC4)ccc23)cc1` (stereo not drawn) [Compound 209], in that order: 100 to 500 nM and “†† (150 ≥ Efficacy (%) > 100)”.
For the compound `Cc1cccc(-c2c(C3CCN(c4ccc5c(c4)OCO5)CC3)oc3cc(C(CC(=O)O)C4CC4)ccc23)c1` (stereo not drawn) [Compound 210], the half-maximal effective concentration (EC50) fell in the range of 100 to 500 nM and the “Efficacy (%)” value is given as “†† (150 ≥ Efficacy (%) > 100)”.
On the same counts, the results for `COc1cccc(-c2c(C3CCN(c4ccc5c(c4)OCO5)CC3)oc3cc(C(CC(=O)O)C4CC4)ccc23)c1` (stereo not drawn) [Compound 211] are 100 to 500 nM and “††† (Efficacy (%) > 150)”.
For `CC(C)(C)c1ccc(-c2c(C3CCN(c4ccc5c(c4)OCO5)CC3)oc3cc(C(CC(=O)O)C4CC4)ccc23)cc1` (stereo not drawn) [Compound 212], the EC50 lay within 100 to 500 nM and the “Efficacy (%)” value is “†† (150 ≥ Efficacy (%) > 100)”.
As for `CC(C)(C)c1ccc(-c2c(C3CCN(c4ccc5c(c4)OCO5)CC3)oc3cc([C@@H](CC(=O)O)C4CC4)ccc23)cc1` [Compound 213], the half-maximal effective concentration (EC50) was in the range of 10 to 100 nM and the “Efficacy (%)” value is listed as “†† (150 ≥ Efficacy (%) > 100)”.
As to `CC(C)(C)c1ccc(-c2c(C3CCN(c4ccc5ncoc5c4)CC3)oc3cc(C(CC(=O)O)C4CC4)ccc23)cc1` (stereo not drawn) [Compound 214], the EC50 fell in the range of 100 to 500 nM and the “Efficacy (%)” value is on record as “† (100 ≥ Efficacy (%) > 50)”.
On the same counts, the results for `CC(C)(C)c1ccc(-c2c(C3CCN(c4ccc5c(c4)OCCO5)CC3)oc3cc(C(CC(=O)O)C4CC4)ccc23)cc1` (stereo not drawn) [Compound 215] are 100 to 500 nM and “†† (150 ≥ Efficacy (%) > 100)”.
As to `COc1ccc(F)c(N2CCC(c3oc4cc([C@H](C5CC5)C(C)C(=O)O)ccc4c3-c3cccc(C(C)(C)C)c3)CC2)c1` (stereo partly drawn) [Compound 217], the half-maximal effective concentration (EC50) fell in the range of 10 to 100 nM and the “Efficacy (%)” value was “†† (150 ≥ Efficacy (%) > 100)”.
For `COc1ccc(F)c(N2CCC(c3oc4cc([C@H](C5CC5)C(C)C(=O)O)ccc4c3-c3ccc(C(C)(C)C)cc3)CC2)c1` (stereo partly drawn) [Compound 218], in that order: 100 to 500 nM and “††† (Efficacy (%) > 150)”.
As for `COc1ccc(F)c(N2CCC(c3oc4cc([C@H](C5CC5)C(F)C(=O)O)ccc4c3-c3cccc(C(C)(C)C)c3)CC2)c1` (stereo partly drawn) [Compound 219], the 50% effective concentration (EC50) lay in the range of 10 to 100 nM and the “Efficacy (%)” value is on record as “† (100 ≥ Efficacy (%) > 50)”.
As to `COc1ccc(F)c(N2CCC(c3oc4cc([C@H](C5CC5)C(F)C(=O)O)ccc4c3-c3ccc(C(C)(C)C)cc3)CC2)c1` (stereo partly drawn) [Compound 220], the EC50 was 100 to 500 nM and the “Efficacy (%)” value is “††††”.
On the same counts, the results for `COc1ccc(F)c(N2CCC(c3oc4cc(C(C5CC5)C(C)(C)C(=O)O)ccc4c3-c3ccc(C(C)(C)C)cc3)CC2)c1` (stereo not drawn) [Compound 222] are 100 to 500 nM and “††† (Efficacy (%) > 150)”.
For `COc1ccc(F)c(N2CCC(c3oc4cc(C(CC(=O)O)C5CC5)c(F)cc4c3-c3ccc(C(C)(C)C)cc3)CC2)c1` (stereo not drawn) [Compound 223], in that order: 100 to 500 nM and “† (100 ≥ Efficacy (%) > 50)”.
On the same counts, the results for `COc1ccc(F)c(N2CCC(c3oc4cc(CCC(=O)O)ccc4c3-c3cccc(C(C)(C)C)c3)CC2)c1` [Compound 231] are 100 to 500 nM and “† (100 ≥ Efficacy (%) > 50)”.
For the compound `COc1ccc(F)c(N2CCC(c3oc4cc(C(C)CC(=O)O)ccc4c3-c3cccc(C(C)(C)C)c3)CC2)c1` (stereo not drawn) [Compound 232], the EC50 was 100 to 500 nM and the “Efficacy (%)” value is recorded as “† (100 ≥ Efficacy (%) > 50)”.
Regarding `CCC(CC(=O)O)c1ccc2c(-c3cccc(C(C)(C)C)c3)c(C3CCN(c4cc(OC)ccc4F)CC3)oc2c1` (stereo not drawn) [Compound 233], the EC50 is 100 to 500 nM and the “Efficacy (%)” value is “†† (150 ≥ Efficacy (%) > 100)”.
On the same counts, the results for `COc1cccc(N2CCC(c3oc4cc([C@@H](CC(=O)O)C5CC5)ccc4c3C(=O)Nc3ccccc3F)CC2)c1` [Compound 234] are no more than 10 nM and “†† (150 ≥ Efficacy (%) > 100)”.
As to `COc1cccc(N2CCC(c3oc4cc(C(CC(=O)O)C5CC5)ccc4c3C(=O)Nc3ccccc3C#N)CC2)c1` (stereo not drawn) [Compound 236], the EC50 lay in the range of 10 to 100 nM and the “Efficacy (%)” value is “††† (Efficacy (%) > 150)”.
For `COc1cccc(N2CCC(c3oc4cc(C(CC(=O)O)C5CC5)ccc4c3C(=O)Nc3ccccc3C(F)(F)F)CC2)c1` (stereo not drawn) [Compound 237], in that order: 10 to 100 nM and “†† (150 ≥ Efficacy (%) > 100)”.
For `COc1cccc(N2CCC(c3oc4cc([C@@H](CC(=O)O)C5CC5)ccc4c3C(=O)Nc3ccccc3C(F)(F)F)CC2)c1` [Compound 238], in that order: 10 to 100 nM and “††† (Efficacy (%) > 150)”.
On the same counts, the results for `COc1cccc(N2CCC(c3oc4cc([C@@H](CC(=O)O)C5CC5)ccc4c3C(=O)Nc3ccccc3C)CC2)c1` [Compound 239] are 10 to 100 nM and “††† (Efficacy (%) > 150)”.

Source of the values: patent EP4682145A1, “BENZOHETEROCYCLIC COMPOUND, AND PREPARATION METHOD THEREFOR AND USE THEREOF” (Cascade Pharmaceuticals, Inc., priority 2023, dated 2024).
